Laboratory results reported in US6770671B2, “7,8-dihydro-xanthenone-8-carboxylic acid derivative and novel microbe producing the same” (Korea Research Institute of Bioscience and Biotechnology, priority 2000, dated 2004).
“And” between values parts separate entries of the source, which are not always exact repeats. Equal entries are not always repeated. “Also recorded” adds a separate entry of the source.

Assays:
[1] = tested on: VEGF-induced proliferation of HUVEC; assay: VEGF-induced HUVEC proliferation (acid phosphatase assay); type: cell-based, human; conditions: VEGF 20 ng/ml; 0.004-10 μg/ml compound; 48 hours; FIG. 1
Description: (§1) To determine the inhibitory effect of the compound represented by the chemical formula 1 on angiogenesis, endothelial cells were used as a model on the basis that they are migrated and differentiated into capillary tubes under a specific culture condition, that is, in the presence of angiogenic factors such as VEGF, bFGF, etc. Stimulation by angiogenic factors triggers complex, intracellular reactions of endothelial cells and causes them to undergo cell proliferation and differentiation, resulting in the induction of angiogenesis. […] In gelatin-coated 96-well plates, HUVEC cultured in an M199 medium (20% FBS, 3 ng/ml bFGF, 100 μg/ml heparin) was plated at a density of 10^4 cells/well and cultured for 24 hours under the condition of serum starvation. Thereafter, VEGF and bFGF were independently added at a concentration of 20 ng/ml per well and ACRL-B4 was also added at concentrations of 0.004, 0.02, 0.08, 0.4, 2 and 10 μg/ml while control wells were treated with angiogenic factors only. After 48 hours incubation, the inhibition of HUVEC proliferation by the ACRL-B4 was quantitatively analyzed by an acid phosphatase assay.

[2] = tested on: bFGF-induced proliferation of HUVEC; assay: bFGF-induced HUVEC proliferation (acid phosphatase assay); type: cell-based, human; conditions: bFGF 20 ng/ml; 0.004-10 μg/ml compound; 48 hours; FIG. 1
Description: as §1

[3] = tested on: angiogenesis in chorioallantoic membrane; assay: Chorioallantoic membrane (CAM) assay using fertilized eggs; type: in vivo; conditions: for Inhibition ratio (%): percentage of positive eggs to total tested eggs
Procedure: <4-2> Inhibitory Effect on in vivo Angiogenesis Chorioallantoic membrane assay using fertilized eggs was used to examine whether the novel compound ACRL-B4 of the present invention is effective to inhibit angiogenesis in vivo.
After being grown at 37° C. for three days at a humidity of 90% in an incubator, fertilized eggs were deprived of 2 ml of albumin through a 18-gauge subcutaneous injection needle. On the fourth day, a circular window was cut into each of the eggs and the outer layers of their chorioallantoic membranes were removed. Separately, pieces of thermanox coverslip were coated with the ACRL-B4 compound dissolved in ethanol at the concentration of 1 and 5 μg/coverslip and the ethanol was evaporated. On day 4.5, the thermanox coverslip were placed on the embryonic chorioallantoic membranes of the embryos. After 2 days incubation at 37° C., 1-2 ml of 10% fat emulsion was injected into chorioallantois and observed blood vessel formation during an embryogenesis or development procedure under a microscope. As a positive control, 1 μg/egg of retinoic acid was used and a negative control was non-treated coverslip.

[4] = tested on: Lewis lung carcinoma 3LL cells; assay: In vivo tumor growth, 3LL Lewis lung carcinoma in C57BL/6 mice; parameters: species or system mouse; conditions: for inhibition of tumor growth: 3LL in C57BL/6 mice
Procedure: Into the backs of C57BL/6 mice 4-5 weeks old, 10^6 3LL cancer cells (Korean Collection for Type Culture at Korea Research Institute of Bioscience and Biotechnology) were subcutaneously transplanted. When the tumors were grown to sizes of 100-250 mm^3, the mice were randomly mixed and divided into 4 groups, each of 6 members, to which drugs were administered. For Group 1, only a solvent was used, while the novel compound ACRL-B4 represented by the chemical formula 1 was intraperitoneally injected every other day at doses of 30 mg/kg, 15 mg/kg and 5 mg/kg to Groups 2 to 4, respectively, under the monitoring of tumor sizes and body weights. The test compound was dissolved in a solvent mixture of 85% physiological saline, 5% DMSO (dimethylsulfoxide) and 10% cremophore.
Tumor sizes were calculated according to the following mathematical formula 1, and since the transplantation of cancer cells, changes in tumor size had been measured and the results are depicted in FIG. 2. [formula]

B16-BL6 melanoma cells = assay: In vivo tumor growth, B16-BL6 melanoma in C57BL/6 mice; parameters: species or system mouse; conditions: for inhibition of tumor growth: B16-BL6 in C57BL/6 mice
Procedure: Onto the back of C57BL/6 mice 4-5 weeks old, 10^6 B16-BL6 melanoma cells were subcutaneously transplanted. When the tumors were grown to sizes of 100-250 mm^3, the mice were randomly mixed and divided into 4 groups, each of 6 members, to which drugs were then administered. For Group 1, only a solvent was used, while the novel compound ACRL-B4 represented by the chemical formula 1 was intraperitoneally injected every other day at doses of 30 mg/kg, 15 mg/kg and 5 mg/kg to Groups 2 to 4, respectively, with monitoring of tumor sizes and body weights. The test compound was dissolved in a solvent mixture of 85% physiological saline, 5% DMSO (dimethylsulfoxide) and 10% cremophore.
For the calculation of cancer sizes, the mathematical formula 1 was used, and since the transplantation of cancer cells, changes in tumor size had been measured and the results are depicted in FIG. 3.

[5] = Acute toxicity test on rat upon oral administration; conditions: in vivo, 500 mg/kg
Procedure: Using specific pathogen-free (SPF) SD rats, which were six weeks old, the 7,8-dihydro-xanthenone-8-carboxylic acid derivative of the present invention were tested for acute toxicity.
Suspensions of the compound of the present invention in 0.5% methyl cellulose were orally administered once at a dose of 500 mg/kg/15 ml to the rats, which were grouped in threes. […] An autopsy was made of the rats with the naked eye to observe whether their abdominal and thoracic organs were damaged.

[6] = tested on: smooth muscle myosin light chain kinase; conditions: Nakanishi et al., J. Antibiotics 1993; cited from earlier work
protein kinase C = conditions: Nakanishi et al., J. Antibiotics 1993; cited from earlier work

Q: Which results are given for `COC(=O)C1c2c(oc3cc(CO)cc(O)c3c2=O)C=CC1O` (stereo not shown) [ACRL-B4, 7,8-dihydro-1,7-dihydroxy-3-hydroxymethyl-xanthenone-8-carboxylic acid methyl ester]?
A: inhibition of VEGF-induced HUVEC proliferation [1]: specifically inhibit the VEGF-induced proliferation of HUVEC; also recorded: potent inhibitory activity against the proliferation of HUVEC; also recorded: inhibit the HUVEC proliferation induced by angiogenic factors, especially VEGF; inhibition of bFGF-induced HUVEC proliferation [2]: inhibit the HUVEC proliferation induced by angiogenic factors; No. of egg showing anti-angiogenesis ([3]; 1 μg/egg): 10; Inhibition ratio (%) ([3]; 1 μg/egg): 71% and 71.4%; No. of egg showing anti-angiogenesis ([3]; 5 μg/egg): 9; Inhibition ratio (%) ([3]; 5 μg/egg): 90%; inhibition of tumor growth ([4]; 5 mg/kg i.p. every other day): 40%; inhibition of tumor growth ([4]; 15 mg/kg i.p. every other day): 60%; inhibition of tumor growth ([4]; 30 mg/kg i.p. every other day): 80%; side effects / body weight ([4]; 5-30 mg/kg i.p. every other day, 3LL-bearing C57BL/6 mice): did not exhibit toxic effects such as weight loss; also recorded: without causing side effects such as loss of body weight; inhibition of tumor growth (B16-BL6 melanoma cells; 5 mg/kg i.p. every other day): 40%; inhibition of tumor growth (B16-BL6 melanoma cells; 15 mg/kg i.p. every other day): 50%; inhibition of tumor growth (B16-BL6 melanoma cells; 30 mg/kg i.p. every other day): 65%; side effects / body weight (B16-BL6 melanoma cells; 5-30 mg/kg i.p. every other day, B16-BL6-bearing C57BL/6 mice): did not exhibit toxic effects such as weight loss; also recorded: without causing side effects such as loss of body weight; LD50 ([5]; oral, single dose, SD rats, read-out: lethal dose (LD50)): ≥ 500 mg/kg; death and clinical symptoms ([5]; po): Neither sudden death nor noticeable clinical symptoms were detected; toxicity signs (weight change, serological tests, serobiochemical tests, corpse examination) ([5]; po): no toxicity signs were observed

Q: For `COC(=O)C12OC1C=Cc1oc3cc(CO)cc(O)c3c(=O)c12` (stereo not shown) [MS-347a], which “inhibition of smooth muscle myosin light chain kinase” value [6] is on record?
A: The value was “inhibitory activity against smooth muscle myosin light chain kinase”.

Q: And the “inhibition of protein kinase C” value (protein kinase C)?
A: Its value is “inhibitory activity”.

Q: For `CC1=C(/C=C/C(C)=C/C=C/C(C)=C/C(=O)O)C(C)(C)CCC1` [Positive control, retinoic acid, reference compound], which “No. of egg showing anti-angiogenesis” value ([3]; 1 μg/egg) is on record?
A: The value was 6.

Q: What about the “Inhibition ratio (%)” value ([3]; 1 μg/egg) of the same compound?
A: Its value is 75%.

Q: For `COC(=O)c1c(O)ccc2oc3cc(CO)cc(O)c3c(=O)c12` [sydowinin B], which “inhibition of smooth muscle myosin light chain kinase” value [6] is on record?
A: Its value is “inhibitor of smooth muscle myosin light chain kinase”.
